ChEMBL document CHEMBL4819153, “l-Hypaphorine and d-hypaphorine: Specific antiacetylcholinesterase activity in rat brain tissue” (Bioorg Med Chem Lett, 2021)

Experiments:
[1] = tested on: HaCaT; test: Cytotoxicity against human HaCaT cells assessed as reduction in cell viability at 10000 uM incubated for 24 hrs relative to control; type: cell-based
[2] = target: T1, Acetylcholinesterase (Rattus norvegicus, UniProt P37136); test: Inhibition of AChE in rat brain Hippocampus; type: tissue-based
T1 sequence (P37136 whole entry): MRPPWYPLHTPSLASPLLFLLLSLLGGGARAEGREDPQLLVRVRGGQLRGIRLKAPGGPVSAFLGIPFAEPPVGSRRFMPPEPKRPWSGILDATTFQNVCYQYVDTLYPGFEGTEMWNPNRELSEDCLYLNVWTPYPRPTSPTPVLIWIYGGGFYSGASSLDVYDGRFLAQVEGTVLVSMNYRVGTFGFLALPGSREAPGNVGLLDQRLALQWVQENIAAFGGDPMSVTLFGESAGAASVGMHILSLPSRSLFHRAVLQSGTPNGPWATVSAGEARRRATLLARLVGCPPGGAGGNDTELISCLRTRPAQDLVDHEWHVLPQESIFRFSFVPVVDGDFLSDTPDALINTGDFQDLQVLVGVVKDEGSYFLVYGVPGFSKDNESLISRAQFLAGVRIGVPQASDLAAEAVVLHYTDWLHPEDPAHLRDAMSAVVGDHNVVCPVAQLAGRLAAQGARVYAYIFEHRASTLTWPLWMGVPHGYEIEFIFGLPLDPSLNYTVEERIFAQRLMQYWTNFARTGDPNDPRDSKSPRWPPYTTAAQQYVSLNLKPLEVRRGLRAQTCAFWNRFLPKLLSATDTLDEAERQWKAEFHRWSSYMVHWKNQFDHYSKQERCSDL

[3] = target: T1, Acetylcholinesterase; test: Inhibition of AChE in rat brain Cerebellum; type: tissue-based
[4] = target: T1, Acetylcholinesterase; test: Inhibition of AChE in rat brain cortex; type: tissue-based
[5] = tested on: HaCaT; test: Cytotoxicity against human HaCaT cells assessed as reduction in cell viability at 5000 to 10000 uM incubated for 48 hrs relative to control; type: cell-based; conditions: dose 5000-10000 µM
[6] = target: T1, Acetylcholinesterase; test: Inhibition of AChE in rat brain Striatum; type: tissue-based
[7] = Solubility in water; type: physicochemical; conditions: buffer
[8] = tested on: HaCaT; test: Cytotoxicity against human HaCaT cells assessed as reduction in cell viability upto 10000 uM incubated for 24 hrs relative to control; type: cell-based
[9] = tested on: HaCaT; test: Cytotoxicity against human HaCaT cells assessed as reduction in cell viability upto 10000 uM incubated for 48 hrs relative to control; type: cell-based
[10] = tested on: HaCaT; test: Cytotoxicity against human HaCaT cells assessed as reduction in cell viability incubated for 24 hrs relative to control; type: cell-based
[11] = tested on: HaCaT; test: Cytotoxicity against human HaCaT cells assessed as reduction in cell viability incubated for 48 hrs relative to control; type: cell-based

| Structure (SMILES) | Activity [1] | IC50 [2] [µM] | IC50 [3] [µM] | IC50 [4] [µM] | Activity [5] | IC50 [6] [µM] | solubility [7] | Activity [8] | Activity [9] | Activity [10] [%] | Activity [11] [%] |
| --- | --- | --- | --- | --- | --- | --- | --- | --- | --- | --- | --- |
| CN(C)C(=O)Oc1cccc([N+](C)(C)C)c1.[Br-] [NEOSTIGMINE BROMIDE] | Toxic | 0.07 | 37.2 | 0.65 | Toxic | 3.17 | – | – | – | – | – |
| C[N+](C)(C)[C@H](Cc1c[nH]c2ccccc12)C(=O)O.[Cl-] | – | 0.32 | 19.1 | 0.24 | – | 34.6 | Soluble | Non-Toxic | Non-Toxic | – | – |
| CN(C)/N=N/c1[nH]cnc1C(N)=O [DACARBAZINE] | – | – | – | – | – | – | – | – | – | 29.74 | 44.46 |
| C[N+](C)(C)[C@@H](Cc1c[nH]c2ccccc12)C(=O)O.[Cl-] | – | > 1000 | 18.6 | > 1000 | – | > 1000 | Soluble | Non-Toxic | Non-Toxic | – | – |
